Test results published in patent US20240285576A1, “R-MDMA FOR TREATMENT OF PAIN” (Mind Medicine, Inc., priority 2023, published 2024).

What was measured:
[1] = system: healthy volunteer population; assay: Subjective effects in humans (psychedelic experience questionnaires, 5D-ASC, VAS); format: in vivo
Method: Doses of any of the compounds herein can be 20-300 mg. […] Compounds can be administered a single dose or multiple doses, up to three times per day. […] The compounds can be administered before, during, or after the individual has the sensation of pain.

Mice = assay: Acute pain: mouse tail flick; conditions: for MPE, tail flick: model of acute pain (FIG. 3)

## CN[C@H](C)Cc1ccc2c(c1)OCO2 [R-MDMA]
[1]; R-MDMA 75 mg, 125 mg, 175 mg or 225 mg, compared to racemic MDMA
  subjective experience on standard psychedelic experience questionnaires: differentiated subjective experience
[1]; R-MDMA 75 mg, 125 mg, 175 mg or 225 mg, healthy volunteer population
  measures of emotional breakthrough: dose dependent changes
[1]; R-MDMA 300 mg compared with S-MDMA (125 mg), expected
  psychedelic-type effects (5D-ASC total OAV score): greater psychedelic-type effects
Mice; R-MDMA 17 and 30 mg/kg PO, 30, 60 and 90 minutes after administration, comparable to morphine (FIG. 2)
  latency of the tail flick: statistically significant increase
Mice; R-MDMA 17 and 30 mg/kg PO
  MPE, tail flick: 60%
Mice; R-MDMA treated animals, 60 and 90 minutes post-treatment
  % MPE (percent of maximal possible effect), tail flick: significantly increased

## CN1CC[C@]23c4c5ccc(O)c4O[C@H]2[C@@H](O)C=C[C@H]3[C@H]1C5 [morphine, reference compound]
Mice; morphine 4 mg/kg SC
  MPE, tail flick: 80%

## CN[C@@H](C)Cc1ccc2c(c1)OCO2 [S-MDMA]
[1]; 125 mg of S-MDMA vs 125 mg of R-MDMA, postulated
  subjective stimulation (VAS): greater subjective stimulation
